Test results taken from US7115296B2, “N-alkylaspartyl amide derivative and sweetening agent” (Ajinomoto Co., Inc., priority 2001, dated 2006).
Like-named read-outs stand apart in the source and are kept apart here. Peptide text beside a SMILES is read from it.

How the values were obtained:
[1] = sensory (organoleptic) test of sweetening potency
[2] = times that of sucrose; reported in WO 94/11391; cited from earlier work
physchem = details: buffer, pH 3
[3] = times the sweetness of sugar, sensory test
[4] = values compared to sweetening potency of a 4% aqueous solution of sucrose

| Compound | Sweetening potency [1, 3] | Sweetening potency [1, 4] | other results |
| --- | --- | --- | --- |
| COc1ccc(CCCN[C@@H](CC(=O)O)C(=O)N[C@H](C)[C@H](O)CC2CCCCC2)cc1O [compound 13, N-[3-(3-hydroxy-4-methoxyphenyl)propyl]-α-L-aspartyl N-(1R,2R)-1-methyl-2-hydroxy-3-cyclohexylpropyl amide] | 5000 times | 5000 | – |
| CC[C@@H](C[C@H](O)[C@@H](C)NC(=O)[C@H](CC(=O)O)NCCCc1ccc(OC)cc1)c1ccccc1 [compound 8, N-[3-(4-methoxyphenyl)propyl]-α-L-aspartyl N-(1R,2S,4S)-1-methyl-2-hydroxy-4-phenylhexyl amide] | 3000 times | 3000 | – |
| CC[C@@H](C[C@H](O)[C@@H](C)NC(=O)[C@H](CC(=O)O)NCCCc1ccc(O)cc1O)c1ccccc1 [compound 4, N-[3-(2,4-dihydroxyphenyl)propyl]-α-L-aspartyl N-(1R,2S,4S)-1-methyl-2-hydroxy-4-phenylhexyl amide] | 10000 times | 10000 | – |
| CC[C@@H](C[C@H](O)[C@@H](C)NC(=O)[C@H](CC(=O)O)NCCCc1ccc(O)cc1)c1ccccc1 [compound 7, N-[3-(4-hydroxyphenyl)propyl]-α-L-aspartyl N-(1R,2S,4S)-1-methyl-2-hydroxy-4-phenylhexyl amide] | 6000 times | 6000 | – |
| CC[C@@H](C[C@H](O)[C@@H](C)NC(=O)[C@H](CC(=O)O)NCCC(C)(C)c1ccc(OC)c(O)c1)c1ccccc1 [compound 9, N-[3-methyl-3-(3-hydroxy-4-methoxyphenyl)butyl]-α-L-aspartyl N-(1R,2S,4S)-1-methyl-2-hydroxy-4-phenylhexyl amide] | approximately 15000 times | 15000 | Sweetening potency ([1]; times the sweetness of sugar, sensory test, listed as Compound No.9): 15000 times |
| COC(=O)[C@H](Cc1ccccc1)NC(=O)[C@H](CC(=O)O)NCCC(C)(C)C [N-[N-(3,3-dimethylbutyl)-L-α-aspartyl]-L-phenylalanine 1-methyl ester] | – | – | Sweetening potency [2]: 10000 times |
| CC[C@@H](C[C@H](O)[C@@H](C)NC(=O)[C@H](CC(=O)O)NCCC(C)(C)c1ccc(O)c(C)c1)c1ccccc1 [compound 10, N-[3-methyl-3-(3-methyl-4-hydroxyphenyl)butyl]-α-L-aspartyl N-(1R,2S,4S)-1-methyl-2-hydroxy-4-phenylhexyl amide] | 15000 times | 15000 | – |
| CC[C@@H](C[C@H](O)[C@@H](C)NC(=O)[C@H](CC(=O)O)NCCC(C)(C)CCCO)c1ccccc1 [compound 16, N-(3,3-dimethyl-6-hydroxyhexyl)-α-L-aspartyl N-(1R,2S,4S)-1-methyl-2-hydroxy-4-phenylhexyl amide] | 4500 times | 4500 | – |
| CC[C@@H](C[C@H](O)[C@@H](C)NC(=O)[C@H](CC(=O)O)NCCCc1ccc(OC)c(O)c1)c1ccccc1 [compound 1, N-[3-(3-hydroxy-4-methoxyphenyl)propyl]-α-L-aspartyl N-(1R,2S,4S)-1-methyl-2-hydroxy-4-phenylhexyl amide] | approximately 15000 times | 15000 | Sweetening potency ([1]; times the sweetness of sugar, sensory test, listed as Compound No.1): 15000 times |
| COc1ccc(CCCN[C@@H](CC(=O)O)C(=O)N[C@H](C)C(O)CC2CCCCC2)cc1O (mixture of isomers) [compound 12, N-[3-(3-hydroxy-4-methoxyphenyl)propyl]-α-L-aspartyl N-(1R,2RS)-1-methyl-2-hydroxy-3-cyclohexylpropyl amide] | 4000 times | 4000 | – |
| COC(=O)[C@H](Cc1ccccc1)NC(=O)[C@@H](N)CC(=O)O [aspartame] (H-Asp-Phe-OMe) | – | – | half-life (physchem): ~30 h |
| CC[C@@H](C[C@H](O)[C@@H](C)NC(=O)[C@H](CC(=O)O)NCCC(C)(C)CCO)c1ccccc1 [compound 15, N-(3,3-dimethyl-5-hydroxypentyl)-α-L-aspartyl N-(1R,2S,4S)-1-methyl-2-hydroxy-4-phenylhexyl amide] | 6500 times | 6500 | – |
| CC[C@@H](C[C@H](O)[C@@H](C)NC(=O)[C@H](CC(=O)O)NCCCc1ccc(OC)cc1O)c1ccccc1 [compound 3, N-[3-(2-hydroxy-4-methoxyphenyl)propyl]-α-L-aspartyl N-(1R,2S,4S)-1-methyl-2-hydroxy-4-phenylhexyl amide] | 6000 times | 6000 | – |
| COc1ccc(C(C)(C)CCN[C@@H](CC(=O)O)C(=O)N[C@H](C)[C@H](O)CC2CCCCC2)cc1O [compound 14, N-[3-methyl-3-(3-hydroxy-4-methoxyphenyl)butyl]-α-L-aspartyl N-(1R,2R)-1-methyl-2-hydroxy-3-cyclohexylpropyl amide] | 5000 times | 5000 | – |
| CC[C@@H](C[C@H](O)[C@@H](C)NC(=O)[C@H](CC(=O)O)NCCCc1ccc(O)c(C)c1)c1ccccc1 [compound 6, N-[3-(3-methyl-4-hydroxyphenyl)propyl]-α-L-aspartyl N-(1R,2S,4S)-1-methyl-2-hydroxy-4-phenylhexyl amide] | 4000 times | 4000 | – |
| CC[C@@H](C[C@H](O)[C@@H](C)NC(=O)[C@H](CC(=O)O)NCCCc1ccc(O)c(OC)c1)c1ccccc1 [compound 2, N-[3-(3-methoxy-4-hydroxyphenyl)propyl]-α-L-aspartyl N-(1R,2S,4S)-1-methyl-2-hydroxy-4-phenylhexyl amide] | 10000 times | 10000 | – |
| CC[C@H](C[C@H](O)[C@@H](C)NC(=O)[C@H](CC(=O)O)NCCCc1ccc(OC)c(O)c1)c1ccccc1 [compound 11, N-[3-(3-hydroxy-4-methoxyphenyl)propyl]-α-L-aspartyl N-(1R,2S,4R)-1-methyl-2-hydroxy-4-phenylhexyl amide] | 4000 times | 4000 | – |
| CC[C@@H](C[C@H](O)[C@@H](C)NC(=O)[C@H](CC(=O)O)NCCCc1ccc(C)c(O)c1)c1ccccc1 [compound 5, N-[3-(3-hydroxy-4-methylphenyl)propyl]-α-L-aspartyl N-(1R,2S,4S)-1-methyl-2-hydroxy-4-phenylhexyl amide] | 6000 times | 6000 | – |
